Active and inactive are the calls of the source. The rule behind the calls is not given here.
Experiments:
[1] = target: DNA (cytosine-5)-methyltransferase 1 (Homo sapiens) (UniProt P26358); assay: Inhibition of DNMT1 (unknown origin) at 100 uM using poly(dI-dC).poly(dI-dC) as substrate preincubated for 15 mins followed by substrate/[3H]-SAM addition measured after 120 mins by liquid scintillation counting analysis
[2] = target: DNMT3A2/3L complex (Homo sapiens) (UniProt Q9Y6K1+Q9UJW3); assay: Inhibition of DNMT3A/3L (unknown origin) at 100 uM using biotinylated DNA oligonucleotides as substrate preincubated for 15 mins followed by substrate/[3H]-SAM addition measured after 4 hrs by liquid scintillation counting analysis; type: protein-complex assay
[3] = target: DNMT3B-DNMT3L complex (Homo sapiens) (UniProt Q9UBC3+Q9UJW3); assay: Inhibition of DNMT3B/3L (unknown origin) at 100 uM using biotinylated DNA oligonucleotides as substrate preincubated for 15 mins followed by substrate/[3H]-SAM addition measured after 4 hrs by liquid scintillation counting analysis; type: protein-complex assay
Histone deacetylase 1 = Histone deacetylase 1 (Homo sapiens, UniProt Q13547); assay: Inhibition of HDAC1 (unknown origin) preincubated for 15 mins followed by substrate addition measured after 60 mins by fluorescence assay
[4] = target: T1, Protein deacetylase HDAC6 (Homo sapiens, UniProt Q9UBN7); assay: Inhibition of HDAC6 (unknown origin) preincubated for 15 mins followed by substrate addition measured after 60 mins by fluorescence assay
T1 sequence (Q9UBN7 whole entry): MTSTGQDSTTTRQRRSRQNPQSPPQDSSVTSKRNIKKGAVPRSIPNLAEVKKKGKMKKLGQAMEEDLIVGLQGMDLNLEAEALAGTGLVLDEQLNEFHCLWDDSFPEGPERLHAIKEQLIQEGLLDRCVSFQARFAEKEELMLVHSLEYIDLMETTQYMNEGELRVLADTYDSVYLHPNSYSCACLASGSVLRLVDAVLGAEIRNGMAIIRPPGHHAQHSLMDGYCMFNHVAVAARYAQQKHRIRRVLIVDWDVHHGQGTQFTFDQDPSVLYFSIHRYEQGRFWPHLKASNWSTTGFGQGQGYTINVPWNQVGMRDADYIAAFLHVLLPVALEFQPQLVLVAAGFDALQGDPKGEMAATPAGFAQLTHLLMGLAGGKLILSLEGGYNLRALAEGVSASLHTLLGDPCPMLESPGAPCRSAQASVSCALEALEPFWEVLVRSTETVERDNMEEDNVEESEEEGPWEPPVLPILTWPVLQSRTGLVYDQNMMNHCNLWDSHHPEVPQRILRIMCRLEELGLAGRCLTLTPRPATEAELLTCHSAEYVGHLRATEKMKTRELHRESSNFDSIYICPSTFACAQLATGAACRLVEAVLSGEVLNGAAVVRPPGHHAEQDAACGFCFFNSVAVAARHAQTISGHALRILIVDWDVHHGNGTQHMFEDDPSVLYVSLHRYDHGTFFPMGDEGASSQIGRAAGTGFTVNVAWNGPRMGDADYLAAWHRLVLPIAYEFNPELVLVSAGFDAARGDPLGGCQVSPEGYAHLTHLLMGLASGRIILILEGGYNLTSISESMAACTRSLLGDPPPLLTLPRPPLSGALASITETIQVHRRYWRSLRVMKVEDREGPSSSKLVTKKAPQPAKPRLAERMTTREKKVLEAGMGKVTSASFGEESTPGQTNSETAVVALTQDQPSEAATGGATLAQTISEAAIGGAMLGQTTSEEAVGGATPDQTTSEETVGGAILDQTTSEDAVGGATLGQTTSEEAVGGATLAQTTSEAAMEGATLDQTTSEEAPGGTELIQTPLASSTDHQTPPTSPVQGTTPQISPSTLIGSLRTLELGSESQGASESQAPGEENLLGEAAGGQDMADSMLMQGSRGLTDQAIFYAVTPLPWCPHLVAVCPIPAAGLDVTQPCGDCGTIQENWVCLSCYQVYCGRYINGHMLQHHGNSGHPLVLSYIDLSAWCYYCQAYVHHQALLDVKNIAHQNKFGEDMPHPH

K562 = assay: Antiproliferative activity against human K562 cells after 72 hrs by MTT assay; type: functional, cell-based; details: K562, 72 h
U-937 [5] = assay: Antiproliferative activity against human U937 cells after 72 hrs by MTT assay; type: functional, cell-based; details: U-937, 72 h
U-937 [6] = assay: Induction of apoptosis in human U937 cells assessed as necrotic cells at 2.5 uM after 48 hrs by Annexin V-FITC/PI staining based flow cytometry (reference value: 0%); type: functional
Homo sapiens [7] = species: Homo sapiens; assay: Inhibition of HDAC in human U937 cells assessed as induction of histone H3K9 acetylation after 12 hrs by Western blot analysis; type: cell-based
Homo sapiens [8] = species: Homo sapiens; assay: Inhibition of HDAC in human U937 cells assessed as induction of histone H4K8 acetylation after 12 hrs by Western blot analysis; type: cell-based
[9] = target: DNA (cytosine-5)-methyltransferase 1 (Homo sapiens) (UniProt P26358); assay: Inhibition of DNMT1 in human U937 cells assessed as increase in P16INK4A expression level at 1 to 5 uM after 36 hrs by Western blot analysis; type: cell-based
Homo sapiens [10] = species: Homo sapiens; assay: Inhibition of DNMT in human U937 cells assessed as induction of P16 CpG islands demethylation at 1 to 2.5 uM after 36 hrs by PCR analysis; type: cell-based
U-937 [11] = assay: Induction of apoptosis in human U937 cells assessed as increase in cleaved caspase-3 level at 1 to 5 uM after 36 hrs by Western blot analysis; type: functional, cell-based
U-937 [12] = assay: Induction of apoptosis in human U937 cells assessed as increase in cleaved PARP expression at 1 to 5 uM after 36 hrs by Western blot analysis; type: functional, cell-based
U-937 [13] = assay: Induction of apoptosis in human U937 cells assessed as increase in PARP expression at 1 to 5 uM after 36 hrs by Western blot analysis; type: functional, cell-based
U-937 [14] = assay: Induction of apoptosis in human U937 cells assessed as viable cells at 2.5 uM after 48 hrs by Annexin V-FITC/PI staining based flow cytometry (reference value: 99.4%); type: functional; details: U-937, 48 h, read-out: Activity
U-937 [15] = assay: Induction of apoptosis in human U937 cells assessed as early apoptotic cells at 2.5 uM after 48 hrs by Annexin V-FITC/PI staining based flow cytometry (reference value: 0.162%); type: functional
U-937 [16] = assay: Induction of apoptosis in human U937 cells assessed as late apoptotic cells at 2.5 uM after 48 hrs by Annexin V-FITC/PI staining based flow cytometry (reference value: 0.438%); type: functional
U-937 [17] = assay: Induction of apoptosis in human U937 cells assessed as viable cells at 5 uM after 48 hrs by Annexin V-FITC/PI staining based flow cytometry (reference value: 99.4%); type: functional; details: U-937, 48 h, read-out: Activity
U-937 [18] = assay: Induction of apoptosis in human U937 cells assessed as early apoptotic cells at 5 uM after 48 hrs by Annexin V-FITC/PI staining based flow cytometry (reference value: 0.162%); type: functional
U-937 [19] = assay: Induction of apoptosis in human U937 cells assessed as late apoptotic cells at 5 uM after 48 hrs by Annexin V-FITC/PI staining based flow cytometry (reference value: 0.438%); type: functional
U-937 [20] = assay: Induction of apoptosis in human U937 cells assessed as necrotic cells at 5 uM after 48 hrs by Annexin V-FITC/PI staining based flow cytometry (reference value: 0%); type: functional
U-937 [21] = assay: Induction of apoptosis in human U937 cells assessed as viable cells at 10 uM after 48 hrs by Annexin V-FITC/PI staining based flow cytometry (reference value: 99.4%); type: functional; details: U-937, 48 h, read-out: Activity
U-937 [22] = assay: Induction of apoptosis in human U937 cells assessed as early apoptotic cells at 10 uM after 48 hrs by Annexin V-FITC/PI staining based flow cytometry (reference value: 0.162%); type: functional
U-937 [23] = assay: Induction of apoptosis in human U937 cells assessed as late apoptotic cells at 10 uM after 48 hrs by Annexin V-FITC/PI staining based flow cytometry (reference value: 0.438%); type: functional
U-937 [24] = assay: Induction of apoptosis in human U937 cells assessed as necrotic cells at 10 uM after 48 hrs by Annexin V-FITC/PI staining based flow cytometry (reference value: 0%); type: functional
U-937 [25] = assay: Induction of apoptosis in human U937 cells assessed as cell death after 48 hrs by Annexin V-FITC/PI staining based flow cytometry; type: functional
Salmonella typhimurium [26] = assay: Genotoxicity in Salmonella typhimurium TA97 at 50 times IC50 by Ames test; type: toxicity; details: salmonella enterica subsp. enterica serovar typhimurium
Salmonella typhimurium [27] = assay: Genotoxicity in Salmonella typhimurium TA98 at 50 times IC50 by Ames test; type: toxicity; details: salmonella enterica subsp. enterica serovar typhimurium
Salmonella typhimurium [28] = assay: Genotoxicity in Salmonella typhimurium TA102 at 50 times IC50 by Ames test; type: toxicity; details: salmonella enterica subsp. enterica serovar typhimurium
Salmonella typhimurium [29] = assay: Genotoxicity in Salmonella typhimurium TA1535 at 50 times IC50 by Ames test; type: toxicity; details: salmonella enterica subsp. enterica serovar typhimurium

Sequence of DNA (cytosine-5)-methyltransferase 1 (Homo sapiens) (P26358 whole entry): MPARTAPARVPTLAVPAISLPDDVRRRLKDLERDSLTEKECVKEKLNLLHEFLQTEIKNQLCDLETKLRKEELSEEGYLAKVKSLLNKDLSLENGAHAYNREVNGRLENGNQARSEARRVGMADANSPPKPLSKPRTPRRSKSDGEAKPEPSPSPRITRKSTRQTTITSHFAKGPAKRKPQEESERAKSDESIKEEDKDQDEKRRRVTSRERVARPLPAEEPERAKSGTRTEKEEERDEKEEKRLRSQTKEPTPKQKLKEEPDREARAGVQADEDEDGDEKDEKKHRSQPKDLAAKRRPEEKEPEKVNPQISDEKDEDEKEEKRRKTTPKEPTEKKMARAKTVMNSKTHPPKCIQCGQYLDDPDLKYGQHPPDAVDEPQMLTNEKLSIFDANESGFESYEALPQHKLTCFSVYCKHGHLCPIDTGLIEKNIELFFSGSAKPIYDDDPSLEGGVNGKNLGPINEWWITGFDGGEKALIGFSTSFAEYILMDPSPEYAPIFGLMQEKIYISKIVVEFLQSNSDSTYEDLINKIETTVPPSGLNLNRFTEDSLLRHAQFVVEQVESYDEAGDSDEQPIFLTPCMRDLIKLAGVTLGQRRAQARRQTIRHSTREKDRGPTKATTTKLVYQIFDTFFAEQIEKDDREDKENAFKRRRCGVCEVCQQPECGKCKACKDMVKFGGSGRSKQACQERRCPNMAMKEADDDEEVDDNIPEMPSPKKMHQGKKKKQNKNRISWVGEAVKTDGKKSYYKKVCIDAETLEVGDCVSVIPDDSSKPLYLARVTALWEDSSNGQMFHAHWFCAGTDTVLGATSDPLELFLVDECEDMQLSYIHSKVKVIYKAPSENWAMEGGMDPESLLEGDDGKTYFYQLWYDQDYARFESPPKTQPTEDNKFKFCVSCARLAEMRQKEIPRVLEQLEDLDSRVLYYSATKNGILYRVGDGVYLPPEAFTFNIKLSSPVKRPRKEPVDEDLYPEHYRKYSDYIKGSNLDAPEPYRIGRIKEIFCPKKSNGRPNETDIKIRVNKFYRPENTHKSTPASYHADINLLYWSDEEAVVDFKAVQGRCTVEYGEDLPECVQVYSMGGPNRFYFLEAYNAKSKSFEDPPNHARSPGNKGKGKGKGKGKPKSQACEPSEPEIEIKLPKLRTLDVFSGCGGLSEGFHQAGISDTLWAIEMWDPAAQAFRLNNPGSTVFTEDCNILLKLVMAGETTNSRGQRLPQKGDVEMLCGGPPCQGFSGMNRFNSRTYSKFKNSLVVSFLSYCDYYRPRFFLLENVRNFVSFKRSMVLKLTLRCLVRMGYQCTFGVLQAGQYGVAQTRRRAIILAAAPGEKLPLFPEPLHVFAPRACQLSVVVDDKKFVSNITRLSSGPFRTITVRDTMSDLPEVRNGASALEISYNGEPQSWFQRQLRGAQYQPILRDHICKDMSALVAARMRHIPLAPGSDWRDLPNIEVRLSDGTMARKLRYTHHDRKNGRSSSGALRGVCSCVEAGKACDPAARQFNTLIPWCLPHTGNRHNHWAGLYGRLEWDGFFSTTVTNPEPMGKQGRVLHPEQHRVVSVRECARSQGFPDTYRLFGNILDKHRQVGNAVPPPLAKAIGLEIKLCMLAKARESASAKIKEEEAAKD
Sequence of Histone deacetylase 1 (Q13547 whole entry): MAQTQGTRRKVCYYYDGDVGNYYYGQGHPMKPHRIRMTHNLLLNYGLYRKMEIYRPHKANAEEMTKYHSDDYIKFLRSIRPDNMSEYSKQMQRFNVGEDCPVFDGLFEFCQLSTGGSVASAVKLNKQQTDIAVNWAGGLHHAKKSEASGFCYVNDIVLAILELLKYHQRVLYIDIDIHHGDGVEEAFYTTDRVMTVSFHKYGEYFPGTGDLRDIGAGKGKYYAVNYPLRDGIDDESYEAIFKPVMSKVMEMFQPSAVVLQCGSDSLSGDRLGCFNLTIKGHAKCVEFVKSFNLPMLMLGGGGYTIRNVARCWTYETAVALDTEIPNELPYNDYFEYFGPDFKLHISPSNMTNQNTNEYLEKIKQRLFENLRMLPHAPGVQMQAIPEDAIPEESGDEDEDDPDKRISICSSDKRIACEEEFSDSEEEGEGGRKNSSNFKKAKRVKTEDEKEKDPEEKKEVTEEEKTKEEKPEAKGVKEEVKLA
Sequence of DNMT3A2/3L complex (Homo sapiens) (Q9UJW3 whole entry, looked up): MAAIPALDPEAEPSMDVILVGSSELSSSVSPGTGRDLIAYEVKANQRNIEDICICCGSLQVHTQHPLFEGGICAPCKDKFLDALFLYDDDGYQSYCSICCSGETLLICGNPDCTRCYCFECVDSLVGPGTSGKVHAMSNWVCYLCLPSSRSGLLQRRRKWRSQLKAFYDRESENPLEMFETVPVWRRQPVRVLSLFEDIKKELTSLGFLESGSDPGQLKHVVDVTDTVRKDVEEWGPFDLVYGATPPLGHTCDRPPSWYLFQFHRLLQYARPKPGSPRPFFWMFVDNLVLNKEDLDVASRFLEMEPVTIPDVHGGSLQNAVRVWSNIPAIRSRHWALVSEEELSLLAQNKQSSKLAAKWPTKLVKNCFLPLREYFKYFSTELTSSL
Sequence of DNMT3A2/3L complex (Homo sapiens) (Q9Y6K1 whole entry, looked up): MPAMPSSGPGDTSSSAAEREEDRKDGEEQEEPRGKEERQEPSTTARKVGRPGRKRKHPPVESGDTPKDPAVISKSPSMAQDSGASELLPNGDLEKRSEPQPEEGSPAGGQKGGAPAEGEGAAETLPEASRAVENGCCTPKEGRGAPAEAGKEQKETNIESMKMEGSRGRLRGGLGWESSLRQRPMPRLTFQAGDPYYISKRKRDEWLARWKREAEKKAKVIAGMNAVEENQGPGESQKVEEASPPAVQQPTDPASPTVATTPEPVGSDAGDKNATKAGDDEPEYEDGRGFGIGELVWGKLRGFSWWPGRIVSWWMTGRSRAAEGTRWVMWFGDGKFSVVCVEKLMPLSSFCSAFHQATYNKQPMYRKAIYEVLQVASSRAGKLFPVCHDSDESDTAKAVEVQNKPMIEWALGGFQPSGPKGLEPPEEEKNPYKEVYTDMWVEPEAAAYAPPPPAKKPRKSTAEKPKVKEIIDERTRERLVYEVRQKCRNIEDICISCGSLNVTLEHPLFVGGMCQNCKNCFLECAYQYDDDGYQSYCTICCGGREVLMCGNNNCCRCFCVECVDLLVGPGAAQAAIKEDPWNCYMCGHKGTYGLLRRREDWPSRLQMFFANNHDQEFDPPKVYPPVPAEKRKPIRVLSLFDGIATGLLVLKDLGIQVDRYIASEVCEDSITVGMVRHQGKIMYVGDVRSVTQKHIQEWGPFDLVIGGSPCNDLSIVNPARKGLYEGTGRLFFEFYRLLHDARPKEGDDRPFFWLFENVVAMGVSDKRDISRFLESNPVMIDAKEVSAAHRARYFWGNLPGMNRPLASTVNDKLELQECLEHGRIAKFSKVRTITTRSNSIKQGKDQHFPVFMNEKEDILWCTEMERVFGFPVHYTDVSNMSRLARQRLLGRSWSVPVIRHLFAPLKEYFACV
Sequence of DNMT3B-DNMT3L complex (Homo sapiens) (Q9UJW3 whole entry, looked up, other chains not shown): as the sequence (Q9UJW3 whole entry, looked up) above

inhibition [1]: 69.9 to 70%
inhibition [2]: 23 to 23.4%
inhibition [3]: 48 to 48.5%
IC50 (Histone deacetylase 1): 56.8 nM
IC50 [4]: 17.4 nM
IC50 (K562): 2850 nM
IC50 (U-937 [5]): 1060 nM
inhibition [9]: Active
Structure (SMILES): O=C(/C=C/c1ccc(CCNC(=O)c2cc(C(F)(F)F)ccc2Cl)cc1)NO
Activity (U-937 [6]): 0.452%
inhibition (Homo sapiens [7]): Dose-dependent effect
inhibition (Homo sapiens [8]): Dose-dependent effect
inhibition (Homo sapiens [10]): Active
Activity (U-937 [11]): Active
Activity (U-937 [12]): Active
Activity (U-937 [13]): Active
viability at 2.5 µM (U-937 [14]): 56%
Activity (U-937 [15]): 12.9%
Activity (U-937 [16]): 30.7%
viability at 5 µM (U-937 [17]): 0.725%
Activity (U-937 [18]): 48.2%
Activity (U-937 [19]): 50.7%
Activity (U-937 [20]): 0.384%
viability at 10 µM (U-937 [21]): 0.784%
Activity (U-937 [22]): 30.1%
Activity (U-937 [23]): 68.3%
Activity (U-937 [24]): 0.846%
Activity (U-937 [25]): Dose-dependent effect
Activity (Salmonella typhimurium [26]): Non-Toxic
Activity (Salmonella typhimurium [27]): Non-Toxic
Activity (Salmonella typhimurium [28]): Non-Toxic
Activity (Salmonella typhimurium [29]): Non-Toxic

Reference: ChEMBL document CHEMBL4033641, “Design, synthesis and anticancer potential of NSC-319745 hydroxamic acid derivatives as DNMT and HDAC inhibitors” (Eur J Med Chem, 2017)
